From paper PMC10316653 (iScience, 2023)
Where two headings read alike, the source gives them in different places. Blank lines part the entries; values can stand above or below the molecule they belong to. *1 amine or outer side, *2 acyl side, *3 side chain or, on linkers, in order; H or OH if unused. Where a SMILES comes first, the peptide text is derived from it. Bridges are numbered along the chain shown (N, C = ends). [ ]: non-standard residue; d: D form. X1 = CC(=O)NC(C(=O)OC(C(C)C)C(N[*:1])C(=O)[*:2])C(O)C(C)C; PhLac = O=C(O)[CH](O)Cc1ccccc1; NMeT = CN[CH](C(=O)O)[CH](C)O; NMeA = CN[CH](C)C(=O)O; NMeDha = C=C(NC)C(=O)O

How the values were obtained:
H9C2 cells = experiment: Intracellular calcium mobilization assay in H9C2 cells; type: cell-based, rat; settings: for inhibition of UTP-induced calcium response: 1 μM pretreatment 20 min
A2BAR [1] = target: T1, A2BAR (Homo sapiens, UniProt P29275); experiment: cAMP accumulation assay in naive HEK293 cells; type: cell-based; settings: for effect on PKC (PMA)-induced enhancement of BAY-induced cAMP accumulation: inhibitor 1 μM, PMA 1 μM, BAY 10 μM
T1 sequence (P29275 1-332): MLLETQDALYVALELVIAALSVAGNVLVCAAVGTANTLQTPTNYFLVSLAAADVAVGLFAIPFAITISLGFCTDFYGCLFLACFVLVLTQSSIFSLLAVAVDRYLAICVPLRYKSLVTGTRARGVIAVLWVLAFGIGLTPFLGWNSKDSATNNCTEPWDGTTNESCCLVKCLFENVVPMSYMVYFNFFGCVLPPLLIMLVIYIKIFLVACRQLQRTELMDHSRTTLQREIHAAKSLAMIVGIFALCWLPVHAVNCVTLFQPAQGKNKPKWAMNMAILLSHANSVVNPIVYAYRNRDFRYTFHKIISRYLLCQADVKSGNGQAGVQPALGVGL

A2BAR [2] = target: T2, A2BAR (Rattus norvegicus, UniProt P29276); experiment: cAMP accumulation assay in H9C2 cells endogenously expressing the A2BAR; type: cell-based
T2 sequence (P29276 1-332): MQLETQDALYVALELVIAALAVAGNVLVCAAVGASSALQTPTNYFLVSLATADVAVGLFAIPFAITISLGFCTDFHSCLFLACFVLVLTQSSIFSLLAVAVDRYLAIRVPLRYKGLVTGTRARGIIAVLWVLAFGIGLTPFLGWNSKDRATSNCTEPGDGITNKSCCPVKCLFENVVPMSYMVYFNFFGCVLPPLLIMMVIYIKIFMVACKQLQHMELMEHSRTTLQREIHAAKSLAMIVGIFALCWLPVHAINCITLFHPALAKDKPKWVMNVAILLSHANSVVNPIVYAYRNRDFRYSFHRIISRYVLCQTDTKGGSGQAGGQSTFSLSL

A2BAR [3] = target: T1, A2BAR; experiment: cAMP accumulation assay in HEK293-A2B cells; type: cell-based
A2BAR [4] = target: T1, A2BAR; experiment: cAMP accumulation in Gi-null HEK293-A2B cells; type: cell-based; settings: read-out: Emax of cAMP accumulation (10 μM forskolin in HEK293-A2B = 100%)
A2BAR [5] = target: T1, A2BAR; experiment: cAMP accumulation in Gi-null HEK293 cells; type: cell-based; settings: PMA 1 μM 40 min
recombinant rat A2BAR = target: T3, recombinant rat A2BAR (Rattus norvegicus, UniProt P29276); experiment: cAMP accumulation in H9C2 cells expressing the recombinant rat A2BAR; type: cell-based; settings: H9C2 cells with rat A2BAR expression, 0.3 μg/well
T3 sequence (P29276 1-332): T2 sequence (P29276 1-332)

A2BAR [6] = target: T4, A2BAR (Mus musculus, UniProt Q60614); experiment: cAMP accumulation in NIH3T3 cells endogenously expressing the A2BAR; type: cell-based; settings: 20 min
T4 sequence (Q60614 1-332): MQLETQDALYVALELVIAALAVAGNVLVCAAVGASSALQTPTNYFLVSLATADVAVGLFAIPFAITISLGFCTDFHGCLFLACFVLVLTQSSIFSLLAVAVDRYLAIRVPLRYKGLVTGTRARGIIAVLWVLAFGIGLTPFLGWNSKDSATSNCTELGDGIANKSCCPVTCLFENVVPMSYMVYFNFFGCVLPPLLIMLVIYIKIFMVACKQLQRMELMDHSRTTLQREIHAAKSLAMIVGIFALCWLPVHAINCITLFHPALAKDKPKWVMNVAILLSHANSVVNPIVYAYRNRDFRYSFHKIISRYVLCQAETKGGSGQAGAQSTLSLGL

A2BAR [7] = target: T1, A2BAR; experiment: Intracellular calcium mobilization assay in HEK293-A2B cells; type: cell-based; settings: for effect on NECA-induced intracellular calcium mobilization: 1 μM pretreatment 20 min
A2BAR [8] = target: T1, A2BAR; type: cell-based
A2BAR [9] = target: T1, A2BAR; experiment: Radioligand binding to membranes from HEK293-A2B cells
adenylyl cyclase = experiment: Forskolin-stimulated cAMP accumulation in H9C2 cells; type: cell-based, rat; settings: PMA 1 μM 40 min, forskolin 10 μM
ERK1/2 = ERK1/2 activity assay in H9C2 cells; type: cell-based, rat
PKCθ = settings: reported selectivity profile, ref not given; cited from earlier work
PKCδ = settings: reported selectivity profile, ref not given; cited from earlier work
[10] = HEK293-A2B cells treated with PMA 1 μM 40 min

Structure (SMILES): CCNC(=O)[C@H]1O[C@@H](n2cnc3c(N)ncnc32)[C@H](O)[C@@H]1O [NECA, adenosine-5′-N-ethyluronamide]
induction of calcium mobilization (H9C2 cells): did not induce calcium mobilization

Structure (SMILES): CCCCCCCCCCCCCC(=O)O[C@@H]1[C@@H](C)[C@@]2(O)[C@@H](C=C(CO)C[C@]3(O)C(=O)C(C)=C[C@@H]23)[C@@H]2C(C)(C)[C@]12OC(C)=O [PMA, phorbol 12-myristate 13-acetate]
Emax (A2BAR [1]; HEK293, read-out: maximal stimulation relative to Emax of NECA): < 10% | maximal agonist effect (10 μM NECA = 100%) (A2BAR [1]; naive HEK293 cells, 20 min (Figure 7D)): 7.36 ± 1.08% | enhancement of the function of BAY (cAMP accumulation) (A2BAR [1]; wild-type HEK293 cells, PMA 1 μM 40 min): 95% | enhancement of A2BAR agonist-induced cAMP accumulation (A2BAR [2]; H9C2 cells, PMA 1 nM pretreatment 40 min): 25% | Emax of cAMP accumulation relative to NECA (A2BAR [2]; naive H9C2 cells, 5 min (Figure S10)): about 20 % of NECA | maximal cAMP level (10 μM NECA = 100%) (A2BAR [2]; naive H9C2 cells, 20 min (Figure 7C)): 20.0 ± 0.36% | EC50 (A2BAR [2]; potency of enhancing effect on A2BAR-mediated cAMP accumulation, H9C2 cells): ~1 nM | EC50 (A2BAR [3]; EC50, cAMP accumulation, HEK293-A2B cells, incubated 60 min): 56.4 nM | effect of pretreatment on NECA- or BAY-induced cAMP accumulation (A2BAR [3]; HEK293-A2B cells, PMA 40 min): raised the basal cAMP level but not the Emax | Emax (A2BAR [3]; read-out: activation Emax (Emax of NECA = 100%)): 84.7% | inhibition of UTP-induced calcium response (H9C2 cells): completely inhibited | Emax (A2BAR [4]): 19.3 ± 3.1% | enhancement of the function of BAY (cAMP accumulation) (A2BAR [5]): 37% | maximal cAMP level (10 μM NECA = 100%) (recombinant rat A2BAR): 65.4 ± 8.0% | cAMP accumulation versus NECA = 100% (A2BAR [6]): 34.9 ± 7.7% | induction of calcium mobilization (A2BAR [7]): did not induce calcium mobilization | effect on NECA-induced intracellular calcium mobilization (A2BAR [7]): inhibited | Emax (A2BAR [8]; HEK293, read-out: Emax of cAMP accumulation (10 μM forskolin = 100%)): 49.3 ± 4.6% | maximal agonist effect (10 μM NECA = 100%) (A2BAR [8]; HEK293 cells with recombinant human A2BAR expression, 0.3 μg/well): 35.5 ± 5.0% | effect of treatment on agonist [3H]NECA binding (A2BAR [9]; [10]): significantly increased agonist binding | effect of treatment on antagonist [3H]DPCPX binding (A2BAR [9]; [10]): did not affect | displacement of specific binding of [3H]NECA (25 nM) (A2BAR [9]; membranes from HEK293-A2B cells, 1 μM): 1.6 ± 1.2% | effect of pretreatment on forskolin-stimulated cAMP accumulation (adenylyl cyclase): did not inhibit or enhance | ERK1/2 phosphorylation (ERK1/2; PMA 1 μM, sustained over 30 min): > 300 % above baseline

effect on PMA-induced cAMP accumulation (A2BAR [2]; naive H9C2 cells, antagonist 1 µM): inhibited | effect on NECA-induced intracellular calcium mobilization (A2BAR [7]): inhibited
Structure (SMILES): CCCn1c(=O)[nH]c2nc(-c3ccc(S(=O)(=O)N4CCN(c5ccc(Cl)cc5)CC4)cc3)[nH]c2c1=O [PSB603]
effect on PMA-induced ERK1/2 phosphorylation (ERK1/2; 1 μM added 20 min before PMA 1 μM): not affected

effect on PKC (PMA)-induced enhancement of BAY-induced cAMP accumulation (A2BAR [1]; naive HEK293 cells): blocked PKC-induced enhancement
Structure (SMILES): CN(C)C[C@H]1CCn2c(c(C3=C(c4cn(C)c5ccccc45)C(=O)NC3=O)c3ccccc32)C1 [RO320432]

Structure (SMILES): CC(C)[C@H]1C(=O)N[C@H](CO)Cc2cc(NC(=O)/C=C/C=C/c3ccc(C(F)(F)F)cc3)ccc2N1C [TPPB]
effect of pretreatment on BAY-induced cAMP accumulation (A2BAR [1]; HEK293 cells, TPPB 1 µM 40 min): also enhanced the function of BAY

Structure (SMILES): O=c1ccn([C@@H]2O[C@H](COP(=O)(O)OP(=O)(O)OP(=O)(O)O)[C@@H](O)[C@H]2O)c(=O)[nH]1 [UTP]
induction of calcium mobilization (H9C2 cells): induced a robust calcium response

effect on PKC (PMA)-induced enhancement of BAY-induced cAMP accumulation (A2BAR [1]; naive HEK293 cells): did not significantly inhibit
Structure (SMILES): CC(C)[C@@](C)(O)[C@@H]1CN(c2nc(-c3[nH]nc4ncccc34)c(F)cc2Cl)CCN1 [VTX-27]
IC50 (PKCθ): 0.08 nM | IC50 (PKCδ): 16 nM

Structure (SMILES): C=C1C(=O)NC(C)C(=O)N(C)C(C)C(=O)NC(C(OC(=O)C(NC(C)=O)C(O)C(C)C)C(C)C)C(=O)N(C)C(C(C)OC)C(=O)OC(C)C(NC(C)=O)C(=O)OC(Cc2ccccc2)C(=O)N1C (centres unmarked) [YM254890] (Ac-T[PhLac][NMeDha]A[NMeA][X1][NMeT](Me); ester 1-C; configuration not given here)
inhibition of UTP-induced calcium response (H9C2 cells): completely inhibited
